This passage reports Ki and Ratio Ki results from ChEMBL document CHEMBL3352709, “Synthesis and binding profile of haloperidol-based bivalent ligands targeting dopamine D(2)-like receptors” (Bioorg Med Chem Lett, 2014).

For one assay, the target named is T1, D(4) dopamine receptor (Homo sapiens, UniProt P21917).
T1 sequence (P21917 whole entry): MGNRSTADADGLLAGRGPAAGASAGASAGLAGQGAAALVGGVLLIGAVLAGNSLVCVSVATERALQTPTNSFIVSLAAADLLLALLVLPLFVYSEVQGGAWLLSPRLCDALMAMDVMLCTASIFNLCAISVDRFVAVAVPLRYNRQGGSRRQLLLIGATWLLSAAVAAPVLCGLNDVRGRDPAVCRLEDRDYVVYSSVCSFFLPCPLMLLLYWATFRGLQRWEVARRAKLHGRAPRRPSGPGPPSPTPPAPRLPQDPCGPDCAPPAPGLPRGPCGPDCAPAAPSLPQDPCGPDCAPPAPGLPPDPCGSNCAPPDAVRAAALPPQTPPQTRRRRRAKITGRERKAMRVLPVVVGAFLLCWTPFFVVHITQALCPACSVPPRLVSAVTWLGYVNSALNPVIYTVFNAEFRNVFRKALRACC
Briefly: Displacement of [3H]spiperone from human D4.4 receptor stably expressed in CHO cell membranes by competitive binding assay. A general note: Loss of bound radioactivity is the signal in a displacement assay; it reports binding, not function.

Assay [1] concerns the target T2, D(2) dopamine receptor (Homo sapiens, UniProt P14416). Briefly: Displacement of [3H]spiperone from human D2short receptor stably expressed in CHO cell membranes by competitive binding assay.
A further assay addresses D(3) dopamine receptor (Homo sapiens, UniProt P35462). Put plainly: Displacement of [3H]spiperone from human D3 receptor stably expressed in CHO cell membranes by competitive binding assay.
In assay [2] the target is T2, D(2) dopamine receptor. Briefly: Displacement of [3H]spiperone from human D2long receptor stably expressed in CHO cell membranes by competitive binding assay.
For another assay, the target named is D(1A) dopamine receptor (Sus scrofa, UniProt P50130). Briefly: Displacement of [3H]SCH23390 from porcine striatal membranes D1 receptor by competitive binding assay.
For assay [3], the system named is CHO. Briefly: Selectivity ratio of Ki for human D4.4 receptor stably expressed in CHO cell membranes to Ki for human D3 receptor stably expressed in CHO cell membranes. It is filed as cell-based.
Assay [4] relates to CHO. Put plainly: Selectivity ratio of Ki for human D3 receptor stably expressed in CHO cell membranes to Ki for human D4.4 receptor stably expressed in CHO cell membranes. It is filed as cell-based.

Sequence of D(3) dopamine receptor (P35462 whole entry): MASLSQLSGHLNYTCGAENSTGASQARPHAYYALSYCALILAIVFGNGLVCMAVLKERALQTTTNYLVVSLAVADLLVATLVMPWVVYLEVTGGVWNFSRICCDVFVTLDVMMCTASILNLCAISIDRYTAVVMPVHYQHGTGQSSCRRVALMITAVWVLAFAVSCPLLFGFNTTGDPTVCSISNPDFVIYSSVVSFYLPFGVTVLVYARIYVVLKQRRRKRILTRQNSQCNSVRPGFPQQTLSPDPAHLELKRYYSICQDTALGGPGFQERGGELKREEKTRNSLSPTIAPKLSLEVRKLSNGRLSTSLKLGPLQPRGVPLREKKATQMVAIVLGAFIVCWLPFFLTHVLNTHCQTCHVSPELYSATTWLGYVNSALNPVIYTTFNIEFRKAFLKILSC
Sequence of D(1A) dopamine receptor (P50130 whole entry): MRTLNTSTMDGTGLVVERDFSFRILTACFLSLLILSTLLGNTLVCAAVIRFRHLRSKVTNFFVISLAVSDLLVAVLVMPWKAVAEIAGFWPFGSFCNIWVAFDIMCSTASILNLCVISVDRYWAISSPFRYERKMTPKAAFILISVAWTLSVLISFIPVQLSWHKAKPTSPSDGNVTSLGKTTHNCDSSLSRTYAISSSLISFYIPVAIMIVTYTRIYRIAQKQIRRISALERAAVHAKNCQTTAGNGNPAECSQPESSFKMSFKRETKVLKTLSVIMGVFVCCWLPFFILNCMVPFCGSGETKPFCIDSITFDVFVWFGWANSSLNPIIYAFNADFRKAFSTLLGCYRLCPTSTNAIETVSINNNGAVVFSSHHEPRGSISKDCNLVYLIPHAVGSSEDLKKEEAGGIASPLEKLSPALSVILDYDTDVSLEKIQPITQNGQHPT
T2 sequence (P14416 whole entry): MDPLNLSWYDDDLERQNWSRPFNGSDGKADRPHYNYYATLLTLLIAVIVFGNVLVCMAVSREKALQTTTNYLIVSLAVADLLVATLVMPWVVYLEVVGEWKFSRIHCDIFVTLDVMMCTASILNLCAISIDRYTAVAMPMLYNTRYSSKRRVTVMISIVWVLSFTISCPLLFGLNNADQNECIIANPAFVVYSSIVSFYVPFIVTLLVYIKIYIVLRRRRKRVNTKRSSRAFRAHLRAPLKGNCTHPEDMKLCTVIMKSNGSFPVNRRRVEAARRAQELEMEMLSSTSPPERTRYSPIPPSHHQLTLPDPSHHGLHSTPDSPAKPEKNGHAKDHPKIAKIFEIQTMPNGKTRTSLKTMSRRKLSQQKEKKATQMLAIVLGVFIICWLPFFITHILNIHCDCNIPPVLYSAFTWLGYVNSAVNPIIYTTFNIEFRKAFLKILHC

By Ki is commonly meant a dissociation constant, usually derived from enzyme kinetics or from competition with a known ligand. Lower therefore signals tighter binding. On to `O=C(CCCCCCCCCCCCCCC(=O)OC1(c2ccc(Cl)cc2)CCN(CCCC(=O)c2ccc(F)cc2)CC1)OC1(c2ccc(Cl)cc2)CCN(CCCC(=O)c2ccc(F)cc2)CC1`, for which the Ki at D(4) dopamine receptor turned out to be 1400 nM; on D(2) dopamine receptor [1] it was 280 nM; on D(3) dopamine receptor, 220 nM; on D(2) dopamine receptor [2], 140 nM; on D(1A) dopamine receptor it was 6800 nM.
In the same order, the values of `O=C(CCc1cn(CCCCCCCCCCn2cc(CCC(=O)OC3(c4ccc(Cl)cc4)CCN(CCCC(=O)c4ccc(F)cc4)CC3)nn2)nn1)OC1(c2ccc(Cl)cc2)CCN(CCCC(=O)c2ccc(F)cc2)CC1` are 89 nM, 5.4 nM, 5.9 nM, 4.9 nM and 86 nM.
Take `O=C(CCC(=O)OC1(c2ccc(Cl)cc2)CCN(CCCC(=O)c2ccc(F)cc2)CC1)OC1(c2ccc(Cl)cc2)CCN(CCCC(=O)c2ccc(F)cc2)CC1`: the Ratio Ki in the assay with CHO [3] stood at 2. In addition, the Ki was 24 nM at D(4) dopamine receptor; 5.4 nM at D(2) dopamine receptor [1]; 14 nM at D(3) dopamine receptor; 6.7 nM at D(2) dopamine receptor [2]; 130 nM at D(1A) dopamine receptor.
Regarding `O=C(CCc1cn(CCOCCOCCOCCOCCn2cc(CCC(=O)OC3(c4ccc(Cl)cc4)CCN(CCCC(=O)c4ccc(F)cc4)CC3)nn2)nn1)OC1(c2ccc(Cl)cc2)CCN(CCCC(=O)c2ccc(F)cc2)CC1`, the inhibition constant (Ki) was 46 nM on D(4) dopamine receptor; 3.8 nM at D(2) dopamine receptor [1]; 19 nM on D(3) dopamine receptor; 1.6 nM on D(2) dopamine receptor [2]; 150 nM at D(1A) dopamine receptor.
The matching figures for `CN(CCC(=O)OC1(c2ccc(Cl)cc2)CCN(CCCC(=O)c2ccc(F)cc2)CC1)CCN(C)CCC(=O)OC1(c2ccc(Cl)cc2)CCN(CCCC(=O)c2ccc(F)cc2)CC1`: 29 nM, 2.2 nM, 47 nM, 3.2 nM and 260 nM.
The matching figures for `O=C(CCCCCCCCCCCCC(=O)OC1(c2ccc(Cl)cc2)CCN(CCCC(=O)c2ccc(F)cc2)CC1)OC1(c2ccc(Cl)cc2)CCN(CCCC(=O)c2ccc(F)cc2)CC1`: 490 nM, 62 nM, 160 nM, 120 nM and 1400 nM.
The matching figures for `CCCCCCCCCC(=O)OC1(c2ccc(Cl)cc2)CCN(CCCC(=O)c2ccc(F)cc2)CC1` [HALOPERIDOL DECANOATE]: 5.8 nM, 0.46 nM, 3.5 nM, 1.8 nM and 140 nM.
For the compound `O=C(CCC(=O)N1CCC(O)(c2ccc(Cl)cc2)CC1)c1ccc(F)cc1`, the Ki on D(4) dopamine receptor was found to be 18000 nM; on D(2) dopamine receptor [1], 470 nM; at D(3) dopamine receptor, 1700 nM; on D(2) dopamine receptor [2], 860 nM; at D(1A) dopamine receptor, 19000 nM.
For `CC(=O)OC1(c2ccc(Cl)cc2)CCN(CCCC(=O)c2ccc(F)cc2)CC1`, the Ki at D(4) dopamine receptor stood at 9.3 nM; at D(2) dopamine receptor [1], 4.5 nM; at D(3) dopamine receptor it was 56 nM; on D(2) dopamine receptor [2] it was 4.5 nM; on D(1A) dopamine receptor, 59 nM. For the same compound, in the assay with CHO [4], the Ratio Ki was found to be 8.
With `O=C(CCCCCCCCCCCCCCCCC(=O)OC1(c2ccc(Cl)cc2)CCN(CCCC(=O)c2ccc(F)cc2)CC1)OC1(c2ccc(Cl)cc2)CCN(CCCC(=O)c2ccc(F)cc2)CC1`, the Ki on D(4) dopamine receptor was found to be 570 nM; on D(2) dopamine receptor [1] it was 150 nM; on D(3) dopamine receptor, 380 nM; at D(2) dopamine receptor [2], 160 nM; at D(1A) dopamine receptor, 930 nM.
Consider `O=C(CCCCCC(=O)OC1(c2ccc(Cl)cc2)CCN(CCCC(=O)c2ccc(F)cc2)CC1)OC1(c2ccc(Cl)cc2)CCN(CCCC(=O)c2ccc(F)cc2)CC1`, for which the Ki turned out to be 360 nM at D(4) dopamine receptor; 2.6 nM at D(2) dopamine receptor [1]; 11 nM on D(3) dopamine receptor; 3.3 nM on D(2) dopamine receptor [2]; 280 nM on D(1A) dopamine receptor.
The matching figures for `O=C(CCCCCCCCCCC(=O)OC1(c2ccc(Cl)cc2)CCN(CCCC(=O)c2ccc(F)cc2)CC1)OC1(c2ccc(Cl)cc2)CCN(CCCC(=O)c2ccc(F)cc2)CC1`: 2200 nM, 46 nM, 210 nM, 66 nM and 1100 nM.
The matching figures for `Cc1ccc(C(=O)OC2(c3ccc(Cl)cc3)CCN(CCCC(=O)c3ccc(F)cc3)CC2)cc1`: 130 nM, 47 nM, 270 nM, 56 nM and 550 nM.
For `O=C(CCCCCCC(=O)OC1(c2ccc(Cl)cc2)CCN(CCCC(=O)c2ccc(F)cc2)CC1)OC1(c2ccc(Cl)cc2)CCN(CCCC(=O)c2ccc(F)cc2)CC1`, the Ki on D(4) dopamine receptor came out at 300 nM; on D(2) dopamine receptor [1], 2.9 nM; on D(3) dopamine receptor it was 6.4 nM; on D(2) dopamine receptor [2] it was 2.5 nM; at D(1A) dopamine receptor, 920 nM.
In the same order, the values of `O=C(CCCCCCCCC(=O)OC1(c2ccc(Cl)cc2)CCN(CCCC(=O)c2ccc(F)cc2)CC1)OC1(c2ccc(Cl)cc2)CCN(CCCC(=O)c2ccc(F)cc2)CC1` are 490 nM, 31 nM, 39 nM, 15 nM and 1400 nM.
For the compound `O=C(CCCCCCCCCCCCCCCCCCC(=O)OC1(c2ccc(Cl)cc2)CCN(CCCC(=O)c2ccc(F)cc2)CC1)OC1(c2ccc(Cl)cc2)CCN(CCCC(=O)c2ccc(F)cc2)CC1`, the Ki was found to be 160 nM at D(4) dopamine receptor; 27 nM on D(2) dopamine receptor [1]; 82 nM on D(3) dopamine receptor; 25 nM on D(2) dopamine receptor [2]; 1400 nM at D(1A) dopamine receptor.
In the case of `O=C(CCc1cn(CCOCCOCCOCCn2cc(CCC(=O)OC3(c4ccc(Cl)cc4)CCN(CCCC(=O)c4ccc(F)cc4)CC3)nn2)nn1)OC1(c2ccc(Cl)cc2)CCN(CCCC(=O)c2ccc(F)cc2)CC1`, the Ki at D(4) dopamine receptor came to 41 nM; at D(2) dopamine receptor [1] it was 3 nM; at D(3) dopamine receptor, 9.8 nM; on D(2) dopamine receptor [2] it was 1 nM; on D(1A) dopamine receptor, 120 nM.
Consider `O=C(CCN1CCN(CCC(=O)OC2(c3ccc(Cl)cc3)CCN(CCCC(=O)c3ccc(F)cc3)CC2)CC1)OC1(c2ccc(Cl)cc2)CCN(CCCC(=O)c2ccc(F)cc2)CC1`, for which the Ki was 33 nM on D(4) dopamine receptor; 1.1 nM on D(2) dopamine receptor [1]; 9.5 nM at D(3) dopamine receptor; 2.5 nM at D(2) dopamine receptor [2]; 360 nM at D(1A) dopamine receptor.
In the same order, the values of `O=C(CCCCCCCCCCCCCCCCCCCCC(=O)OC1(c2ccc(Cl)cc2)CCN(CCCC(=O)c2ccc(F)cc2)CC1)OC1(c2ccc(Cl)cc2)CCN(CCCC(=O)c2ccc(F)cc2)CC1` are 850 nM, 280 nM, 500 nM, 310 nM and 1500 nM.
Take `CCC(=O)OC1(c2ccc(Cl)cc2)CCN(CCCC(=O)c2ccc(F)cc2)CC1`: the Ki is 2.5 nM at D(4) dopamine receptor; 1.6 nM at D(2) dopamine receptor [1]; 41 nM at D(3) dopamine receptor; 3.9 nM on D(2) dopamine receptor [2]; 72 nM at D(1A) dopamine receptor. Also, the Ratio Ki with CHO [4] was 8.
In the case of `O=C(CCCCCCCC(=O)OC1(c2ccc(Cl)cc2)CCN(CCCC(=O)c2ccc(F)cc2)CC1)OC1(c2ccc(Cl)cc2)CCN(CCCC(=O)c2ccc(F)cc2)CC1`, the Ki at D(4) dopamine receptor was found to be 520 nM; on D(2) dopamine receptor [1] it was 6.5 nM; at D(3) dopamine receptor, 9.1 nM; on D(2) dopamine receptor [2], 5.6 nM; on D(1A) dopamine receptor, 1200 nM.
The matching figures for `CN(C)CCC(=O)OC1(c2ccc(Cl)cc2)CCN(CCCC(=O)c2ccc(F)cc2)CC1`: 8.7 nM, 1.8 nM, 30 nM, 1.9 nM and 200 nM.
In the same order, the values of `O=C(CCCC(=O)OC1(c2ccc(Cl)cc2)CCN(CCCC(=O)c2ccc(F)cc2)CC1)OC1(c2ccc(Cl)cc2)CCN(CCCC(=O)c2ccc(F)cc2)CC1` are 33 nM, 12 nM, 31 nM, 12 nM and 220 nM.
In the same order, the values of `O=C(CCc1cn(CCCCCCCCn2cc(CCC(=O)OC3(c4ccc(Cl)cc4)CCN(CCCC(=O)c4ccc(F)cc4)CC3)nn2)nn1)OC1(c2ccc(Cl)cc2)CCN(CCCC(=O)c2ccc(F)cc2)CC1` are 19 nM, 1.6 nM, 1.8 nM, 1.3 nM and 49 nM.
With `O=C(CCCCC(=O)OC1(c2ccc(Cl)cc2)CCN(CCCC(=O)c2ccc(F)cc2)CC1)OC1(c2ccc(Cl)cc2)CCN(CCCC(=O)c2ccc(F)cc2)CC1`, in the assay on CHO [3], the Ratio Ki worked out at 2. The Ki at D(4) dopamine receptor came to 41 nM; at D(2) dopamine receptor [1] it was 2.3 nM; at D(3) dopamine receptor it was 11 nM; on D(2) dopamine receptor [2], 3 nM; at D(1A) dopamine receptor it was 220 nM.
